The values below come from patent US11981658B2, “Substituted aminopyridine compounds as EGFR inhibitors” (YUHAN CORPORATION, priority 2021, dated 2024).

Where two headings read alike, the source gives them in different places.

One assay addresses EGFR Del19/T790M/C797S (Homo sapiens, UniProt P00533, C797S/DEL746-750/T790M). Kind of assay: Biochemical EGFR kinase inhibition assay (Lance Ultra TR-FRET), triple mutant del19/T790M/C797S. The essentials: (§1)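 Enzyme reactions lasted 1 hour at room temperature with test compounds between 0.003 and 10 μM, followed by 10 mM EDTA quench.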
The next assay has as its target EGFR L858R/C797S (Homo sapiens, UniProt P00533, C797S/L858R). Kind of assay: Biochemical EGFR kinase inhibition assay (Lance Ultra TR-FRET), double mutant L858R/C797S. A digest of the protocol: as §1
(TR-FRET usually uses a lanthanide donor and a delayed reading to cut background.)

Another assay deals with EGFR Del19/C797S (Homo sapiens, UniProt P00533, C797S/DEL746-750). Briefly: Biochemical EGFR kinase inhibition assay (Lance Ultra TR-FRET), double mutant del19/C797S. A digest of the protocol:
as §1

The next assay addresses EGFR wildtype (WT) (Homo sapiens, UniProt P00533). Kind of assay: Biochemical EGFR kinase inhibition assay (Lance Ultra TR-FRET), wildtype. A digest of the protocol: as §1
The target in the next assay is EGFR L858R/T790M/C797S (Homo sapiens, UniProt P00533, C797S/L858R/T790M). Briefly: Biochemical EGFR kinase inhibition assay (Lance Ultra TR-FRET), triple mutant L858R/T790M/C797S. A digest of the protocol: as §1
Sequence of EGFR L858R/T790M/C797S (P00533 25-1210 T790M/C797S/L858R): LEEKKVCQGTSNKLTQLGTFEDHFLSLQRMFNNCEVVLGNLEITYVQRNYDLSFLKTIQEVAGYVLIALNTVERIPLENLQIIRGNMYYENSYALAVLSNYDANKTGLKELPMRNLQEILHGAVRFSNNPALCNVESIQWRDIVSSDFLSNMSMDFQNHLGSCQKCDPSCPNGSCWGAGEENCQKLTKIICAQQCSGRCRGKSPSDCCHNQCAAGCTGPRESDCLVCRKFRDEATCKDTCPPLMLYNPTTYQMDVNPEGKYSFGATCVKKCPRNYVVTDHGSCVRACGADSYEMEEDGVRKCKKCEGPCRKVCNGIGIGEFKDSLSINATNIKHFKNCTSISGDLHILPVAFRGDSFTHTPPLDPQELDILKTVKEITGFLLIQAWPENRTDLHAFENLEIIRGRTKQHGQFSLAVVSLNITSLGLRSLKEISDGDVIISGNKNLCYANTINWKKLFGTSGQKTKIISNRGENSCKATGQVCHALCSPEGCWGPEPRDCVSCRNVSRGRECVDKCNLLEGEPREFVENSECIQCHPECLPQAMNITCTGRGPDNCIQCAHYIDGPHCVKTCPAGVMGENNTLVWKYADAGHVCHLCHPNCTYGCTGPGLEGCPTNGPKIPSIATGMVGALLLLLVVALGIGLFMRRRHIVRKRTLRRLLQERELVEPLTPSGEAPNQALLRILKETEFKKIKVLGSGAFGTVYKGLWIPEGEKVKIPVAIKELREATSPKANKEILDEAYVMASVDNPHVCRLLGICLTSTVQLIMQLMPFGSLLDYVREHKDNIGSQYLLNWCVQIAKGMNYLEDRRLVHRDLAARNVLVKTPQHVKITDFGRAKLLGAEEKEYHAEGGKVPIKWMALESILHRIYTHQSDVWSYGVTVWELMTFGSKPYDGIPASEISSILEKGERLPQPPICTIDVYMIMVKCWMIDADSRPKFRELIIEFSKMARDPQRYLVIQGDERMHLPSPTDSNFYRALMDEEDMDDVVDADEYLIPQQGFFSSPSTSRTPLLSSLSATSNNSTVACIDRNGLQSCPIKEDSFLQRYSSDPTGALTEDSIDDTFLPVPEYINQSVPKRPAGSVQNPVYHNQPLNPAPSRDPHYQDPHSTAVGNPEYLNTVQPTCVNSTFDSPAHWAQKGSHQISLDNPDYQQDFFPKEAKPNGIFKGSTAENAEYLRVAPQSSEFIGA
Setting [1] is: ATP at Km, read-out: IC50 Del19/T790M/C797S (nM), Km ATP.
[2] abbreviates: IC50 Del19/T790M/C797S (nM), 100 μM ATP.
[3] abbreviates: ATP at Km, read-out: IC50 L858R/C797S (nM), Km ATP.
[4] abbreviates: IC50 L858R/C797S (nM), 100 μM ATP.
Setting [5] is: ATP at Km, read-out: IC50 Del19/C797S (nM), Km ATP.
Where [6] appears, read: IC50 Del19/C797S (nM), 100 μM ATP.
[7] abbreviates: ATP at Km, read-out: IC50 WT (nM), Km ATP.
The mark [8] stands for this setting: ATP at Km, read-out: IC50 L858R/T790M/C797S (nM), Km ATP.
[9] abbreviates: IC50 L858R/T790M/C797S (nM), 100 μM ATP.

Sequence of EGFR L858R/C797S (P00533 25-1210 C797S/L858R): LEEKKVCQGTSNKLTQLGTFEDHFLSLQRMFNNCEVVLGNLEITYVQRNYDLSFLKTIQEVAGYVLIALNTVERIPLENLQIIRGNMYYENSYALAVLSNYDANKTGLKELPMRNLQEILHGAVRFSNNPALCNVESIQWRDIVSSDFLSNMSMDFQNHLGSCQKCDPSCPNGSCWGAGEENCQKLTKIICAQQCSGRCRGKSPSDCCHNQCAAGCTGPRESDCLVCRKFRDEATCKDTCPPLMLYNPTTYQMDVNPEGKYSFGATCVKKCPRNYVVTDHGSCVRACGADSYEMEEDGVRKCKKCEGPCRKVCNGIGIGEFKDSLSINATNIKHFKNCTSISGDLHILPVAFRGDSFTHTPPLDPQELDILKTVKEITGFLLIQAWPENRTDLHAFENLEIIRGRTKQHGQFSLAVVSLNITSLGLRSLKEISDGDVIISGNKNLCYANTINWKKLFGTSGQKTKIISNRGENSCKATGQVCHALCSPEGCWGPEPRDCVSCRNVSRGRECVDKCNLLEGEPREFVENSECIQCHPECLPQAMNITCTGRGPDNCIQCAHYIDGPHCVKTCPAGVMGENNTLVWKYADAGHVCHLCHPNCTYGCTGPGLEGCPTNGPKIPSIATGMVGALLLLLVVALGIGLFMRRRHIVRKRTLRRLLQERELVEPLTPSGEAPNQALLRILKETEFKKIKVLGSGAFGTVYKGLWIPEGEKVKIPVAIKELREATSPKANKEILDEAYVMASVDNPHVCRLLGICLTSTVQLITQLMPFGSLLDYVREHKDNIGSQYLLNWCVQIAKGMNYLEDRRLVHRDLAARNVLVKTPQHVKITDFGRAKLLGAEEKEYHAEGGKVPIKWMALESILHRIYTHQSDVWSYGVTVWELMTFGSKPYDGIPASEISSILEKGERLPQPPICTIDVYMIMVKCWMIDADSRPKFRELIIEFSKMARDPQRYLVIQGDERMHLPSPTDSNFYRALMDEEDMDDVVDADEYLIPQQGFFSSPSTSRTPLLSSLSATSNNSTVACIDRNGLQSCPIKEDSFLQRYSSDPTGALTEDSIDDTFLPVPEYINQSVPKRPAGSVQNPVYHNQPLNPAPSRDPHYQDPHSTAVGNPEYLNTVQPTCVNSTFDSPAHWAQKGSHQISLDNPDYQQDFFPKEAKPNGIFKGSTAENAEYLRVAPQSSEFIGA
Sequence of EGFR Del19/C797S (P00533 with tags, fused parts or gaps DEL746-750/C797S): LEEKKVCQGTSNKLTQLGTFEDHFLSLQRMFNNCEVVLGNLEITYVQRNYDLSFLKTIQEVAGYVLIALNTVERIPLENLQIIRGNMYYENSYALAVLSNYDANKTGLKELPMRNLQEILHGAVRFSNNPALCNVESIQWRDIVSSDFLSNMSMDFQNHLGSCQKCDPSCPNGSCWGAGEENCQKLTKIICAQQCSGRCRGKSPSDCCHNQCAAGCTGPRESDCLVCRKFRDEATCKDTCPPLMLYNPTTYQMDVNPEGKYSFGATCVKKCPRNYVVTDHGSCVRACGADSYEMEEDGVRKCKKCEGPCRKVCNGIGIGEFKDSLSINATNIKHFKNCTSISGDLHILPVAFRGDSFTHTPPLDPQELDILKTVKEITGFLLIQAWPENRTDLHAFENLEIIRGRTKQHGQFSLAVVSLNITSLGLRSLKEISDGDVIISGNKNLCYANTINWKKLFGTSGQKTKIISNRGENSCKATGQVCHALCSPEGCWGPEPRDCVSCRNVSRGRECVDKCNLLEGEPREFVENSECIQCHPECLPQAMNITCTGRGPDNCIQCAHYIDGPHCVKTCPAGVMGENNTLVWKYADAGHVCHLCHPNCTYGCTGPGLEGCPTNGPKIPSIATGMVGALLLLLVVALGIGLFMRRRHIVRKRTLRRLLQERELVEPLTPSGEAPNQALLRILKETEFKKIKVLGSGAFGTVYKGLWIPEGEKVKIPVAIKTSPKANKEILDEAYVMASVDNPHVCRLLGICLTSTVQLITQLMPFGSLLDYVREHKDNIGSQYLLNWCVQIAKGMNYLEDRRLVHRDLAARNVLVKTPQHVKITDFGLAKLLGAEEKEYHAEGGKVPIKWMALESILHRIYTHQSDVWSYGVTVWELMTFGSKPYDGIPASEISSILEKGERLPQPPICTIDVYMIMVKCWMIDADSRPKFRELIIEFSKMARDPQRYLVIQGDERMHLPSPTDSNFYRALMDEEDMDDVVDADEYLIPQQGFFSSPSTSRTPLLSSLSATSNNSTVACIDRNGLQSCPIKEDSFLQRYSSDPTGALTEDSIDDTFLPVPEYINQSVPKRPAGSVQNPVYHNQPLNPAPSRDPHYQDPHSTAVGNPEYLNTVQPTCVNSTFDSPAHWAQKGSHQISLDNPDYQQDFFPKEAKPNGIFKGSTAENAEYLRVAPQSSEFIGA
Sequence of EGFR Del19/T790M/C797S (P00533 with tags, fused parts or gaps DEL746-750/T790M/C797S): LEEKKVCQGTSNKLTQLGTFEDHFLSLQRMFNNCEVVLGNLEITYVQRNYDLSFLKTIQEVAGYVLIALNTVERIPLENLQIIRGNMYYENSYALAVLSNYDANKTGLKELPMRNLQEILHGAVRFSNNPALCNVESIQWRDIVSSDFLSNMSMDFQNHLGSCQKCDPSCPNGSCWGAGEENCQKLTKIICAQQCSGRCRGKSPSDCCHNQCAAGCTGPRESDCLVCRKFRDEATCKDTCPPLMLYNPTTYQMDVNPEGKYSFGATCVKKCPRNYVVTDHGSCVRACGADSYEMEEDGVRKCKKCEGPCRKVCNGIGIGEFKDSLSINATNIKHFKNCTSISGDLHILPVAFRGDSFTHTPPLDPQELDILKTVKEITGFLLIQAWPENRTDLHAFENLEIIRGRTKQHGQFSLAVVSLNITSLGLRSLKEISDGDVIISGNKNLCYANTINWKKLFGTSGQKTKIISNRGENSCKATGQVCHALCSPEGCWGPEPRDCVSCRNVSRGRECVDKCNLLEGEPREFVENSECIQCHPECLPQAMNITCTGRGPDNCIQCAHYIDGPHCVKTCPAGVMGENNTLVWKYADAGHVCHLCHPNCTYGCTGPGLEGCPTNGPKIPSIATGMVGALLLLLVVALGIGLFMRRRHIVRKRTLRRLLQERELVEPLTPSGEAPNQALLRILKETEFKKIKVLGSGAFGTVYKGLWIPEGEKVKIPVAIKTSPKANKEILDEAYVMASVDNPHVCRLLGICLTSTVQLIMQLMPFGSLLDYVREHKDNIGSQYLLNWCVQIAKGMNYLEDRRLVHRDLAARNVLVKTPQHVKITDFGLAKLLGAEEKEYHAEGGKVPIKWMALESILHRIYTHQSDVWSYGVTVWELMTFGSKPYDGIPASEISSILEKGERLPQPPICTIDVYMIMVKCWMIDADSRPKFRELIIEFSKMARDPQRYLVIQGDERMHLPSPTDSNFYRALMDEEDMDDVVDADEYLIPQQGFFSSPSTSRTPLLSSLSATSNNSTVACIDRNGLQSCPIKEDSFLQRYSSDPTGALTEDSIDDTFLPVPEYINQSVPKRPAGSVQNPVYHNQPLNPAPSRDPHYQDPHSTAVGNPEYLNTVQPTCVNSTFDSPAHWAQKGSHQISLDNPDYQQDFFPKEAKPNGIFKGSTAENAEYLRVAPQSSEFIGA

For the compound `CC1(CO)CCN(c2cc(Nc3ccnc(-c4cnn(S(=O)(=O)C5CC5)c4)n3)ncc2C#CC2CCCCC2)CC1` [Example 252, (1-(5-(Cyclohexylethynyl)-2-((2-(1-(cyclopropylsulfonyl)-1H-pyrazol-4-yl)pyrimidin-4-yl)amino)pyridin-4-yl)-4-methylpiperidin-4-yl)methanol], the IC50 at EGFR Del19/T790M/C797S (setting [1]) was determined as 8.5 nM; against EGFR Del19/T790M/C797S (setting [2]), 7.9 nM; on EGFR L858R/C797S (setting [3]), 100 nM; on EGFR L858R/C797S (setting [4]), 2080 nM; on EGFR Del19/C797S (setting [5]), 35.9 nM; on EGFR Del19/C797S (setting [6]) it was 39.9 nM. The IC50 at EGFR wildtype (WT) (setting [7]) is 235 nM; at EGFR wildtype (WT) (IC50 WT (nM), 100 μM ATP) it was > 10000 nM; at EGFR L858R/T790M/C797S (setting [8]), 4.3 nM; on EGFR L858R/T790M/C797S (setting [9]), 15.9 nM.

With `O=S(=O)(C1CC1)n1cc(-c2nccc(Nc3cc(N[C@H]4CC[C@@H](O)CC4)c(C#CC4(O)CCOCC4)cn3)n2)cn1` [Example 196, 4-((6-((2-(1-(Cyclopropylsulfonyl)-1H-pyrazol-4-yl)pyrimidin-4-yl)amino)-4-(((1 s, 4s)-4-hydroxycyclohexyl)amino)pyridin-3-yl)ethynyl)tetrahydro-2H-pyran-4-ol], the IC50 at EGFR Del19/T790M/C797S (setting [1]) was found to be 0.7 nM; against EGFR Del19/T790M/C797S (setting [2]), 0.6 nM; at EGFR L858R/C797S (setting [3]), 6.8 nM; against EGFR L858R/C797S (setting [4]), 50.6 nM; on EGFR Del19/C797S (setting [5]), 6 nM; against EGFR Del19/C797S (setting [6]), 9.8 nM. Besides, the IC50 on EGFR wildtype (WT) (setting [7]) was 68 nM; against EGFR wildtype (WT) (IC50 WT (nM), 100 μM ATP), > 10000 nM; on EGFR L858R/T790M/C797S (setting [8]), 0.3 nM; at EGFR L858R/T790M/C797S (setting [9]), 1.1 nM.

Regarding `CN(C)CC1CCN(c2cc(Nc3ccnc(-c4cnn(S(=O)(=O)C5CC5)c4)n3)ncc2C#Cc2cnn(C3CC3)c2)CC1` [Example 298, N-(5-((1-Cyclopropyl-1H-pyrazol-4-yl)ethynyl)-4-(4-((dimethylamino)methyl)piperidin-1-yl)pyridin-2-yl)-2-(1-(cyclopropylsulfonyl)-1H-pyrazol-4-yl)pyrimidin-4-amine], the IC50 on EGFR Del19/T790M/C797S (setting [1]) came out at 0.3 nM; on EGFR Del19/T790M/C797S (setting [2]), 0.4 nM; at EGFR L858R/C797S (setting [3]), 18.5 nM; against EGFR L858R/C797S (setting [4]), 140 nM; on EGFR Del19/C797S (setting [5]), 5.3 nM; against EGFR Del19/C797S (setting [6]), 12 nM. In addition, the IC50 is 23 nM at EGFR wildtype (WT) (setting [7]); > 10000 nM on EGFR wildtype (WT) (IC50 WT (nM), 100 μM ATP); 0.4 nM on EGFR L858R/T790M/C797S (setting [8]); 1.5 nM on EGFR L858R/T790M/C797S (setting [9]).

As to `CC1(CO)CCN(c2cc(Nc3ccnc(-c4cnn(S(=O)(=O)C5CC5)c4)n3)ncc2C#Cc2cnn(CC3COCCO3)c2)CC1` (centres unmarked) [Example 242, (1-(5-((1-((1,4-Dioxan-2-yl)methyl)-1H-pyrazol-4-yl)ethynyl)-2-((2-(1-(cyclopropylsulfonyl)-1H-pyrazol-4-yl)pyrimidin-4-yl)amino)pyridin-4-yl)-4-methylpiperidin-4-yl)methanol], the IC50 at EGFR Del19/T790M/C797S (setting [1]) turned out to be 0.8 nM; against EGFR Del19/T790M/C797S (setting [2]), 1 nM; on EGFR L858R/C797S (setting [3]), 1 nM; against EGFR L858R/C797S (setting [4]) it was 13.8 nM; at EGFR Del19/C797S (setting [5]), 0.7 nM; against EGFR Del19/C797S (setting [6]), 0.6 nM. Besides, the IC50 on EGFR wildtype (WT) (setting [7]) was found to be 4.6 nM; against EGFR wildtype (WT) (IC50 WT (nM), 100 μM ATP), 2610 nM; at EGFR L858R/T790M/C797S (setting [8]) it was 0.4 nM; against EGFR L858R/T790M/C797S (setting [9]), 1.6 nM.

With `CN1CCC(C#Cc2cnc(Nc3ccnc(-c4cnn(S(=O)(=O)C5CC5)c4)n3)cc2N2CCC(C)(CO)CC2)C1` (centres unmarked) [Example 180, (1-(2-((2-(1-(Cyclopropylsulfonyl)-1H-pyrazol-4-yl)pyrimidin-4-yl)amino)-5-((1-methylpyrrolidin-3-yl)ethynyl)pyridin-4-yl)-4-methylpiperidin-4-yl)methanol], the IC50 on EGFR Del19/T790M/C797S (setting [1]) stood at 0.2 nM; against EGFR Del19/T790M/C797S (setting [2]) it was 0.1 nM; on EGFR L858R/C797S (setting [3]), 0.4 nM; against EGFR L858R/C797S (setting [4]), 2.7 nM; at EGFR Del19/C797S (setting [5]), 0.5 nM; against EGFR Del19/C797S (setting [6]), 0.3 nM. The IC50 at EGFR wildtype (WT) (setting [7]) turned out to be 2.8 nM; on EGFR wildtype (WT) (IC50 WT (nM), 100 μM ATP), 1100 nM; at EGFR L858R/T790M/C797S (setting [8]), 0.1 nM; against EGFR L858R/T790M/C797S (setting [9]), 0.1 nM.
